{"source": "ChEMBL document CHEMBL5247598", "about": "(Eur J Med Chem, 2022)", "key": {"NCI/ADR-RES [1]": {"test_system": "NCI/ADR-RES", "experiment": "Induction of apoptosis in human NCI-ADR-RES cells assessed as necrotic cells at 3 uM incubated for 48 hrs by Annexin V-FITC and DAPI staining based flow cytometry (Rvb= 0.55 %)", "assay_type": "functional"}, "MCF7": {"test_system": "MCF7", "experiment": "Antiproliferative activity against human MCF7 cells assessed as reduction in cell viability incubated for 48 hrs by MTT assay", "assay_type": "functional, cell-based", "conditions": "MCF7, 48 h, read-out: IC50"}, "A549": {"test_system": "A549", "experiment": "Antiproliferative activity against human A549 cells assessed as inhibition of cell growth at 50 uM incubated for 48 hrs by MTT assay", "assay_type": "functional, cell-based"}, "A549/TR": {"test_system": "A549/TR", "experiment": "Antiproliferative activity against human Taxol resistant A549 cells assessed as inhibition of cell growth at 50 uM incubated for 48 hrs by MTT assay", "assay_type": "functional, cell-based"}, "HCT-8": {"test_system": "HCT-8", "experiment": "Antiproliferative activity against human Taxol resistant HCT-8 cells assessed as inhibition of cell growth at 50 uM incubated for 48 hrs by MTT assay", "assay_type": "functional, cell-based"}, "HEK-293T": {"test_system": "HEK-293T", "experiment": "Cytotoxicity against human HEK293T cells assessed as inhibition of cell growth at 50 uM incubated for 48 hrs by MTT assay", "assay_type": "toxicity, cell-based"}, "NCI/ADR-RES [2]": {"test_system": "NCI/ADR-RES", "experiment": "Reversal of P-gp-mediated multidrug resistance in human NCI-ADR-RES cells assessed as potentiation of doxorubicin-induced cytotoxicity incubated for 48 hrs by MTT assay", "assay_type": "functional, cell-based"}, "NCI/ADR-RES [3]": {"test_system": "NCI/ADR-RES", "experiment": "Reversal of P-gp-mediated multidrug resistance in human NCI-ADR-RES cells assessed as change in ABCB1 expression level at 1 to 10 uM incubated for 24 hrs in presence of doxorubicin by Western blot analysis", "assay_type": "functional, cell-based", "conditions": "dose 1-10 µM"}, "NCI/ADR-RES [4]": {"test_system": "NCI/ADR-RES", "experiment": "Induction of apoptosis in human NCI-ADR-RES cells assessed as viable cells at 3 uM incubated for 24 hrs by Annexin V-FITC and DAPI staining based flow cytometry (Rvb= 97.9 %)", "assay_type": "functional", "conditions": "read-out: Activity"}, "NCI/ADR-RES [5]": {"test_system": "NCI/ADR-RES", "experiment": "Induction of apoptosis in human NCI-ADR-RES cells assessed as viable cells at 8 uM incubated for 24 hrs in presence of doxorubicin by Annexin V-FITC and DAPI staining based flow cytometry (Rvb= 97.9 %)", "assay_type": "functional", "conditions": "read-out: Activity"}, "NCI-ADR-RES [6]": {"test_system": "NCI-ADR-RES", "experiment": "Inhibition of PI3K/AKT signaling pathway in human NCI-ADR-RES cells assessed as changes in caspase-6 level at 3 uM incubated for 24 to 48 hrs in presence of doxorubicin by Western blot analysis", "assay_type": "cell-based", "conditions": "time 24-48 hrs"}, "NCI-ADR-RES [7]": {"test_system": "NCI-ADR-RES", "experiment": "Inhibition of PI3K/AKT signaling pathway in human NCI-ADR-RES cells assessed as decrease in Bcl-2 level at 3 uM incubated for 24 to 48 hrs in presence of doxorubicin by Western blot analysis", "assay_type": "cell-based", "conditions": "time 24-48 hrs"}, "NCI-ADR-RES [8]": {"test_system": "NCI-ADR-RES", "experiment": "Inhibition of PI3K/AKT signaling pathway in human NCI-ADR-RES cells assessed as decrease in Bcl-xL level at 3 uM incubated for 24 to 48 hrs in presence of doxorubicin by Western blot analysis", "assay_type": "cell-based", "conditions": "time 24-48 hrs"}}, "note": "The source made the active and inactive calls. No cut-off for these calls is given here.", "data": [{"smiles": "C=C1[C@H](OC(C)=O)[C@@H](OC(C)=O)[C@@H](OC(C)=O)C(C)(C)/C=C/[C@H](C)[C@H](OC(=O)c2ccccc2)[C@@]2(O)C[C@@](C)(OC(=O)C(C)(C)C)[C@H](OC(C)=O)[C@@H]2[C@H]1OCC(C)C", "values": [{"measurement": "Activity", "setting": "NCI/ADR-RES [1]", "value": 0.43, "unit": "%"}, {"measurement": "IC50", "setting": "MCF7", "value": "> 100000", "unit": "nM"}, {"measurement": "Activity", "setting": "A549", "value": "inactive"}, {"measurement": "Activity", "setting": "A549/TR", "value": "inactive"}, {"measurement": "Activity", "setting": "HCT-8", "value": "inactive"}, {"measurement": "Activity", "setting": "HEK-293T", "value": "Non-Toxic"}, {"measurement": "EC50", "setting": "NCI/ADR-RES [2]", "value": 182, "unit": "nM"}, {"measurement": "Activity", "setting": "NCI/ADR-RES [3]", "value": "Active"}, {"measurement": "viability at 3 µM", "setting": "NCI/ADR-RES [4]", "value": 97.5, "unit": "%"}, {"measurement": "viability at 8 µM", "setting": "NCI/ADR-RES [5]", "value": 87.1, "unit": "%"}, {"measurement": "inhibition", "setting": "NCI-ADR-RES [6]", "value": "inactive"}, {"measurement": "inhibition", "setting": "NCI-ADR-RES [7]", "value": "Active"}, {"measurement": "inhibition", "setting": "NCI-ADR-RES [8]", "value": "Active"}]}]}
